The text below walks through data of US20050208496A1, “Methods of testing for bronchial asthma or chronic obstructive pulmonary disease” (Genox Research, Inc., priority 2002, published 2005).

Test [1] relates to pendrin gene. Nature of the test: Quantitative PCR (ABI 7700) of the pendrin gene in epithelial cells cultured by the AI or IMM method. The class given is cell-based, human. The note with it: respiratory tract epithelial cells. An excerpt: Quantitative PCR assays were further performed with ABI 7700 using two batches of epithelial cells cultured respectively by the AI method and the IMM method described in Example 1 to quantitatively determine the expression level of the pendrin gene selected in Example 5. The primers and TaqMan probe used in the assays with ABI 7700 were designed based on the information on the sequence of the pendrin gene utilizing Primer Express (PE Biosystems). The 5′ and 3′ ends of the TaqMan probe were labeled with FAM (6-carboxy-fluorescein) and TAMRA (6-carboxy-N,N,N′,N′-tetramethylrhodamine), respectively. The sequences of oligonucleotides of the forward primer (F), reverse primer (R), and TaqMan probe (TP) for the pendrin gene are shown below. The GenBank accession number corresponding to the nucleotide sequence of each marker gene is shown in parenthesis after the name.
Total RNA extracted by the aforementioned method was treated with DNase (Nippon Gene). […]
Additionally, to correct the differences of cDNA concentration in the sample, a similar quantitative analysis was performed for β-actin gene and glyceraldehyde-3-phosphate dehydrogenase (GAPDH) gene as internal standards for correction. By correcting based on the number of copies of these genes, the number of copies of the genes of interest was calculated. […]

In test [2] the test system is respiratory epithelial cells. In words: Goblet cell differentiation of respiratory epithelial cells upon IL-13 stimulation (PAS and Alcian blue staining). It counts as cell-based, human. On the procedure: After the cell count was determined, cells were plated at the cell density of 10^6 cells/cm^2 on a filter membrane with 0.45-μm pores, being attached to the bottom of a Millicell-HA Culture Plate Insert (Millipore Corp.). At the time of plating, Vitrogen gel (Vitrogen from Celtrix Pharmaceuticals, Inc. was used after gelation) was placed on the filter membrane as a growth-supporting material, and the epithelial cells were placed thereon. The Millicell inserts were placed in a 24-well plate (Falcon) containing a culture medium, which was a 1:1 mixture of Dulbecco's MEM and Ham F12 containing 2% Ultroser G and the antibiotics, penicillin, streptomycin, gentamycin, and amphotericin B. The cells were incubated overnight. Then, cells that had not adhered to the collagen gel were removed, and the remaining cells were cultured while the cell side was in contact with air (air interface) for approximately two weeks (See FIG. 1). The basic procedures of the AI method by which respiratory epithelial cells were cultured were the same as those described in the following reports:
As basically done in the AI method, Vitrogen gel was placed on a filter membrane, and epithelial cells were placed thereon. The IMM method is different from the AI method in the point that the IMM method comprises adding a medium to cover the epithelial cells. […]

The subject of test [3] is mouse pendrin gene. Nature of the test: Quantitative PCR of the mouse pendrin gene in the lung of the OVA antigen-exposed bronchial hypersensitivity model. The note with it: lung 24 hours after third antigen inhalation. The class given is in vivo.

“IL-13: human IL-13 (Peprotech, Inc.) added to the medium at 50 ng/mL to stimulate respiratory epithelial cells”: the “pendrin gene expression level, elevation as a result of IL-13 stimulation (quantitative PCR)” value in test [1] was “hundred folds or more”. The “differentiation into goblet cells (PAS and Alcian blue staining)” value in test [2] (AI method, IL-13 50 ng/mL, after 14 days of incubation) is on record as “differentiated into goblet cells”. Besides, in test [2] (IMM method), the goblet cell differentiation entry is “not observed”.
Take “ovalbumin [OVA antigen, ovalbumin antigen used for sensitization and inhalation to induce bronchial hypersensitivity in mice]”: in test [3], the “mouse pendrin gene expression level in the lung versus physiological saline-inhaled mice (quantitative PCR)” value is recorded as “about 50 times”.
